From patent US10420341B2, “Herbicidal phenylpyrimidines” (BASF SE, priority 2015, dated 2019)

Assays:
[1] = system: ECHCG; test: greenhouse pre-emergence herbicidal test; assay type: in vivo, Echinocloa crus-galli; details: pre-emergence method, scale from 0 to 100
In short: (§1)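 After each species was sown separately, test compounds in water were applied at once with finely distributing nozzles. Containers were then irrigated and covered until rooting, held at species-dependent temperatures (10-25° C. or 20-35° C.), and assessed over 2 to 4 weeks on a 0-100 injury scale.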

[2] = system: ALOMY; test: greenhouse pre-emergence herbicidal test; assay type: in vivo, Alopercurus myosuroides; details: pre-emergence method, application rate 500 g/ha, scale from 0 to 100
Excerpt: The seeds of the test plants were sown separately for each species. For the pre-emergence treatment, the active ingredients, which had been suspended or emulsified in water, were applied directly after sowing by means of finely distributing nozzles. The containers were irrigated gently to promote germination and growth and subsequently covered with transparent plastic hoods until the plants had rooted. This cover caused uniform germination of the test plants, unless this had been impaired by the active ingredients. Depending on the species, the plants were kept at 10-25° C. or 20-35° C., respectively. The test period extended over 2 to 4 weeks. During this time, the plants were tended, and their response to the individual treatments was evaluated. Evaluation was carried out using a scale from 0 to 100. 100 means no emergence of the plants, or complete destruction of at least the aerial moieties, and 0 means no damage, or normal course of growth. […] The plants used in the greenhouse experiments were of the following species: [table]

[3] = system: ECHCG; test: greenhouse post-emergence herbicidal test; assay type: in vivo, Echinocloa crus-galli; details: post-emergence method, scale from 0 to 100
In short: (§2)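 Read-out is a visual 0–100 injury rating, 100 meaning complete destruction of at least aerial parts and 0 meaning normal growth. It was taken over 2–4 weeks after plants 3–15 cm tall were treated with compound suspended or emulsified in water.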

[4] = system: APESV; test: greenhouse pre-emergence herbicidal test; assay type: in vivo, Apera spica-venti; details: pre-emergence method, scale from 0 to 100
In short: as §1

[5] = system: POLCO; test: greenhouse post-emergence herbicidal test; assay type: in vivo, Polygonum convolvulus; details: post-emergence method, application rate 500 g/ha, scale from 0 to 100
In short: as §2

[6] = system: ALOMY; test: greenhouse post-emergence herbicidal test; assay type: in vivo, Alopercurus myosuroides; details: post-emergence method, application rate 500 g/ha, scale from 0 to 100
In short: as §2

[7] = system: AVEFA; test: greenhouse post-emergence herbicidal test; assay type: in vivo, Avena fatua; details: post-emergence method, application rate 500 g/ha, scale from 0 to 100
In short: as §2

[8] = system: AMARE; test: greenhouse post-emergence herbicidal test; assay type: in vivo, Amaranthus retroflexus; details: post-emergence method, application rate 500 g/ha, scale from 0 to 100
In short: as §2

[9] = system: ABUTH; test: greenhouse post-emergence herbicidal test; assay type: in vivo, Abutilon theophrasti; details: post-emergence method, application rate 500 g/ha, scale from 0 to 100
Excerpt: (§3) The seeds of the test plants were sown separately for each species. For the post-emergence treatment, the test plants were first grown to a height of 3 to 15 cm, depending on the plant habit, and only then treated with the active ingredients which had been suspended or emulsified in water. For this purpose, the test plants were either sown directly and grown in the same containers, or they were first grown separately as seedlings and transplanted into the test containers a few days prior to treatment. Depending on the species, the plants were kept at 10-25° C. or 20-35° C., respectively. The test period extended over 2 to 4 weeks. During this time, the plants were tended, and their response to the individual treatments was evaluated. Evaluation was carried out using a scale from 0 to 100. 100 means no emergence of the plants, or complete destruction of at least the aerial moieties, and 0 means no damage, or normal course of growth. […] The plants used in the greenhouse experiments were of the following species: [table]

[10] = system: SETVI; test: greenhouse post-emergence herbicidal test; assay type: in vivo, Setaria viridis; details: post-emergence method, scale from 0 to 100
Excerpt: as §3

Row | SMILES | herbicidal activity against ECHCG ([1]; application rate 500 g/ha) | herbicidal activity against ALOMY [2] | herbicidal activity against APESV ([4]; application rate 500 g/ha) | herbicidal activity against POLCO [5] | herbicidal activity against ALOMY [6] | other results
1 | Cc1ccc(Cl)cc1-c1cnc(C2CC2)nc1C(=O)O [example 164] | very good (a very good herbicidal activity is given at values of at least 85) | very good (a very good herbicidal activity is given at values of at least 85) | very good (a very good herbicidal activity is given at values of at least 85) | very good (a very good herbicidal activity is given at values of at least 85) | – | herbicidal activity against ECHCG ([3]; application rate 500 g/ha): very good (a very good herbicidal activity is given at values of at least 85)
2 | COC(=O)c1nc(C2CC2)ncc1-c1cc(F)ccc1C [example 226] | very good (a very good herbicidal activity is given at values of at least 85) | very good (a very good herbicidal activity is given at values of at least 85) | good (A good herbicidal activity is given at values of at least 70) | very good (a very good herbicidal activity is given at values of at least 85) | very good (a very good herbicidal activity is given at values of at least 85) | –
3 | COC(=O)C(C)(C)SC(=O)c1nc(C2CC2)ncc1-c1ccccc1Cl [example 283] | – | very good (a very good herbicidal activity is given at values of at least 85) | very good (a very good herbicidal activity is given at values of at least 85) | very good (a very good herbicidal activity is given at values of at least 85) | – | herbicidal activity against AVEFA [7]: very good (a very good herbicidal activity is given at values of at least 85)
4 | O=C(O)c1nc(C2CC2)ncc1-c1ccccc1C(F)(F)F [example 176] | – | very good (a very good herbicidal activity is given at values of at least 85) | very good (a very good herbicidal activity is given at values of at least 85) | very good (a very good herbicidal activity is given at values of at least 85) | – | herbicidal activity against AVEFA [7]: very good (a very good herbicidal activity is given at values of at least 85)
5 | COC(=O)c1nc(C2CC2)ncc1-c1ccccc1Cl [example 201] | very good (a very good herbicidal activity is given at values of at least 85) | very good (a very good herbicidal activity is given at values of at least 85) | very good (a very good herbicidal activity is given at values of at least 85) | very good (a very good herbicidal activity is given at values of at least 85) | very good (a very good herbicidal activity is given at values of at least 85) | –
6 | O=C(O)c1nc(C2CC2)ncc1-c1ccccc1Br [example 152] | very good (a very good herbicidal activity is given at values of at least 85) | good (A good herbicidal activity is given at values of at least 70) | very good (a very good herbicidal activity is given at values of at least 85) | – | – | herbicidal activity against AMARE [8]: good (A good herbicidal activity is given at values of at least 70)
7 | COC(=O)c1nc(C2CC2)ncc1-c1cc(C)ccc1Cl [example 205] | very good (a very good herbicidal activity is given at values of at least 85) | good (A good herbicidal activity is given at values of at least 70) | very good (a very good herbicidal activity is given at values of at least 85) | – | good (A good herbicidal activity is given at values of at least 70) | herbicidal activity against ECHCG ([3]; application rate 500 g/ha): very good (a very good herbicidal activity is given at values of at least 85)
8 | CCOC(=O)c1nc(C2CC2)ncc1-c1ccccc1Cl [example 251] | – | very good (a very good herbicidal activity is given at values of at least 85) | very good (a very good herbicidal activity is given at values of at least 85) | – | – | herbicidal activity against AMARE [8]: very good (a very good herbicidal activity is given at values of at least 85); herbicidal activity against ABUTH [9]: very good (a very good herbicidal activity is given at values of at least 85)
9 | COc1ccc(-c2cnc(SC)nc2C(=O)O)c(OC)c1 [example 109] | – | – | – | – | – | herbicidal activity against SETVI ([10]; application rate 2000 g/ha): good (A good herbicidal activity is given at values of at least 70)
10 | CNC(=O)c1nc(C2CC2)ncc1-c1ccccc1Cl [example 289] | – | – | – | – | – | herbicidal activity against ECHCG ([1]; application rate 1000 g/ha): good (A good herbicidal activity is given at values of at least 70); herbicidal activity against APESV ([4]; application rate 1000 g/ha): very good (a very good herbicidal activity is given at values of at least 85); herbicidal activity against SETVI ([10]; application rate 1000 g/ha): good (A good herbicidal activity is given at values of at least 70)
11 | O=C(O)c1nc(C2CC2)ncc1-c1c(Cl)cc(F)cc1Cl [example 147] | – | very good (a very good herbicidal activity is given at values of at least 85) | very good (a very good herbicidal activity is given at values of at least 85) | very good (a very good herbicidal activity is given at values of at least 85) | very good (a very good herbicidal activity is given at values of at least 85) | –
12 | COC(=O)c1nc(C2CC2)ncc1-c1ccccc1[N+](=O)[O-] [example 223] | – | – | – | – | – | herbicidal activity against ECHCG ([1]; application rate 1000 g/ha): very good (a very good herbicidal activity is given at values of at least 85); herbicidal activity against ECHCG ([3]; application rate 1000 g/ha): very good (a very good herbicidal activity is given at values of at least 85); herbicidal activity against APESV ([4]; application rate 1000 g/ha): very good (a very good herbicidal activity is given at values of at least 85); herbicidal activity against SETVI ([10]; application rate 1000 g/ha): very good (a very good herbicidal activity is given at values of at least 85)
13 | Cc1ccc(F)cc1-c1cnc(C2CC2)nc1C(=O)O [example 163] | – | – | – | – | – | herbicidal activity against ECHCG ([1]; application rate 1000 g/ha): very good (a very good herbicidal activity is given at values of at least 85); herbicidal activity against ECHCG ([3]; application rate 1000 g/ha): very good (a very good herbicidal activity is given at values of at least 85); herbicidal activity against APESV ([4]; application rate 1000 g/ha): very good (a very good herbicidal activity is given at values of at least 85); herbicidal activity against SETVI ([10]; application rate 1000 g/ha): very good (a very good herbicidal activity is given at values of at least 85)
14 | COC(=O)c1nc(C2CC2)ncc1-c1cc(Cl)ccc1C [example 227] | very good (a very good herbicidal activity is given at values of at least 85) | very good (a very good herbicidal activity is given at values of at least 85) | very good (a very good herbicidal activity is given at values of at least 85) | – | very good (a very good herbicidal activity is given at values of at least 85) | herbicidal activity against ECHCG ([3]; application rate 500 g/ha): very good (a very good herbicidal activity is given at values of at least 85)
15 | COC(=O)c1nc(C2CC2)ncc1-c1ccccc1F [example 190] | very good (a very good herbicidal activity is given at values of at least 85) | very good (a very good herbicidal activity is given at values of at least 85) | very good (a very good herbicidal activity is given at values of at least 85) | good (A good herbicidal activity is given at values of at least 70) | – | –
16 | O=C(O)c1nc(C2CC2)ncc1-c1ccccc1F [example 132] | very good (a very good herbicidal activity is given at values of at least 85) | very good (a very good herbicidal activity is given at values of at least 85) | very good (a very good herbicidal activity is given at values of at least 85) | – | very good (a very good herbicidal activity is given at values of at least 85) | herbicidal activity against ECHCG ([3]; application rate 500 g/ha): very good (a very good herbicidal activity is given at values of at least 85)
